PMC6522473, “The Pseudomonas aeruginosa lectin LecB binds to the exopolysaccharide Psl and stabilizes the biofilm matrix” (Nature Communications, 2019)

Biological target: T1, LecB (Pseudomonas aeruginosa, UniProt Q9HYN5)
T1 construct: purified LecB overexpressed in P. aeruginosa (lecB from PAO1, pJNLecB); homotetramer of 114 amino acid monomers
Assay: ITC ([…] K, three titrations)
Format: binding

T1 sequence (Q9HYN5 entry or part of it): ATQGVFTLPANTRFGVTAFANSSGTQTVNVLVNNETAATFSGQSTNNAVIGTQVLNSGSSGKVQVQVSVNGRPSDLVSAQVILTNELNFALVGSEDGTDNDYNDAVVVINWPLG

Structure (SMILES)	Kd
OC[C@H]1O[C@H](O[C@@H]2C(O)O[C@H](CO)[C@@H](O)[C@@H]2O)[C@@H](O)[C@@H](O)[C@@H]1O (stereo partly drawn) [α-1,2′ mannobiose]	26.6 ± 2.61 µM
OC[C@H]1O[C@H](O[C@H]2[C@H](O)[C@@H](CO)OC(O)[C@H]2O)[C@@H](O)[C@@H](O)[C@@H]1O (stereo partly drawn) [α-1,3′ mannobiose]	33.6 ± 7.18 µM
